Entries after “also recorded” stand apart in the source; their conditions may differ. Like-named read-outs stand apart in the source and are kept apart here.
T1: CD62L-Fc binding to immobilized gp120 (Homo sapiens, UniProt P14151)
T1 construct: Soluble gp120 and CD62L ELISA; Fc (IgG); purchased R&D Systems, Inc
T1 sequence (P14151 39-332 limits assumed): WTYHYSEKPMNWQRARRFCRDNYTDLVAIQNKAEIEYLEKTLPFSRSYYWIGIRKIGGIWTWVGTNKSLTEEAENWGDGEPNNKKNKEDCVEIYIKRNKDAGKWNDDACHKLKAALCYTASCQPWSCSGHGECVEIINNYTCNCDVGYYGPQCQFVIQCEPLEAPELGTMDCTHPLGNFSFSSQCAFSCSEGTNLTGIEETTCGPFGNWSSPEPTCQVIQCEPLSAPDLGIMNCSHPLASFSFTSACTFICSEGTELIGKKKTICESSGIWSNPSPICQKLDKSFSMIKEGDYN

T2: gp120 of strain PBJ (SIV) (SIV, UniProt P19503 23-535)
T2 sequence: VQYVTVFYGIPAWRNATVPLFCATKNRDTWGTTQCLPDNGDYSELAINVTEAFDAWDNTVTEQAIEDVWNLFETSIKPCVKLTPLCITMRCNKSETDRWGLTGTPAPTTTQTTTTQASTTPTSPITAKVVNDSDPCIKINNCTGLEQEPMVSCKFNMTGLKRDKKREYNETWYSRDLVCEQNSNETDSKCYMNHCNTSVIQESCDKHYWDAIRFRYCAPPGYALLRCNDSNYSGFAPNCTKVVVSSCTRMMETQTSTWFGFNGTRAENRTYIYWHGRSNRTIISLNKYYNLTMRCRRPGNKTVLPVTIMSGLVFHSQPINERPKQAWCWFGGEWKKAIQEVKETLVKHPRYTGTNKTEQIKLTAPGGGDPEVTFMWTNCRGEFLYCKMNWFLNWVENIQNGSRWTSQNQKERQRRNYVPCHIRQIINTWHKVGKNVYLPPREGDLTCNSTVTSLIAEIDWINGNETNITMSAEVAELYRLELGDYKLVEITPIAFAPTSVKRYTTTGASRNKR

B1: recombinant PSGL-1 (ligand, UniProt Q14242 42-295, looked up)
chain: QATEYEYLDYDFLPETEPPEMLRNSTDTTPLTGPGTPESTTVEPAARRSTGLDAGGAVTELTTELANMGNLSTDSAAMEIQTTQPAATEAQTTQPVPTEAQTTPLAATEAQTTRLTATEAQTTPLAATEAQTTPPAATEAQTTQPTGLEAQTTAPAAMEAQTTAPAAMEAQTTPPAAMEAQTTQTTAMEAQTTAPEATEAQTTQPTATEAQTTPLAAMEALSTEPSATEALSMEPTTKRGLFIPFSVSSVTHKG
notes: also called P-selectin glycoprotein ligand-1
B2: soluble human L-selectin (sCD62L) (receptor, UniProt P14151 39-332, looked up)
chain: T1 sequence (P14151 39-332 limits assumed)
notes: also called soluble CD62L; recombinant CD62L
B3: PBJ: recombinant gp120, strain PBJ, SIV (protein)
chain: T2 sequence

Legend:
[1] = molecular target: T1, CD62L-Fc binding to immobilized gp120; assay: Soluble gp120 and CD62L ELISA in presence of inhibitors; conditions: 10 mM EDTA or 10 mg/ml carbohydrates
Description: Fifty ng of gp120 proteins were immobilized in individual wells of a 96-well plate for 1 hour at room temperature in coating buffer (10 mM Tris [pH7.5] and 2 mM CaCl2), blocked for 1 hour using blocking buffer (10 mM Tris [pH7.5], 0.1% Tween20), and washed three times with the same buffer. […] The plate was washed five times and readout was colorimetric using a TMB substrate and analyzed on a SPECTRAMAX™ Plus 384 spectrophotometer (Molecular Devices).

HIV-1BaL [2] = assay: HIV-1BaL infection of activated CD8-depleted PBMCs; assay type: cell-based; conditions: for reduction of HIV-1BaL infection of CD4+ T cells: 5 μM
HIV-1BaL [3] = assay: Cell-cell transfer TZM-BL assay; conditions: TZM-BL co-incubated with HIV-1BaL-infected activated CD8-depleted PBMCs
Description: For the cell-cell transfer assay, TZM-BL and TZM-62L cells were seeded in a 96-well, flat-bottom plate at 3,000 cells/well three days before the assay. Three days post infection with HIV-1BaL, activated CD8-depleted PBMCs with and without the presence of BB-94 were added to the wells at the concentration of 80×10^3, 40×10^3, 20×10^3, 10×10^3, and 5×10^3 cells/well with the volume of each well equalized using the CD8− PBMC media. Additional BB-94 was added to both the cells infected in the presence of BB-94 and a sample of cells that only received BB-94 treatment for the cell-cell transfer assay. All conditions were prepared in triplicate. The cell mixtures were incubated at 37° C. for three days, followed by lysis and measurement of the subsequent luciferase expression as per the manufacturer's instructions.

HIV-1 viral release = assay: HIV-1 release assay, CD4+ T cells of HIV-1-infected individuals; assay type: cell-based
Description: PBMCs were obtained by leukapheresis and ficoll-hypaque centrifugation. CD4+ T cells were isolated using a cell separation system (StemCell Technologies). Cells were cultured with medium alone or with plate-bound anti-CD3 and soluble anti-CD28 antibody in the absence (DMSO) or presence of BB-94 in duplicate for 48 hours. The copy number of virion-associated HIV RNA in the above cell culture supernatants was determined using the […]-1 Test, Version 2.0 (Roche Diagnostics). The limit of detection for this system is 20 copies/ml.

CD62L shedding = CD62L shedding on activated CD8-depleted PBMCs; assay type: cell-based, human; conditions: 100 μM concentration; supernatant CD62L by ELISA
[4] = molecular target: T3, soluble human L-selectin (sCD62L) (Homo sapiens, UniProt P14151); assay: SPR (Biacore 3000), gp120 injected over immobilized CD62L
[5] = molecular target: B2; assay: SPR (Biacore 3000), CD62L ligand against CD62L
[6] = molecular target: T2, gp120 of strain PBJ (SIV); assay: SPR (Biacore 3000), gp120 injected over immobilized CD62L
[7] = molecular target: T3, soluble human L-selectin (sCD62L); assay type: binding; conditions: recombinant gp120 injected over immobilized CD62L, SPR; read-out: KD (nM), Solution KD for CD62L

sialyllactose
gp120-CD62L binding in the presence of inhibitor [1]: inhibited

CNC(=O)[C@H](Cc1ccccc1)NC(=O)[C@H](CC(C)C)[C@H](CSc1cccs1)C(=O)NO [BB-94, Batimastat]
reduction of HIV-1BaL infection of CD4+ T cells (HIV-1BaL [2]; day 6, intracellular p24): 60%
reduction of HIV-1BaL infection of CD4+ T cells (HIV-1BaL [2]; day 11, intracellular p24): 80%
reduction in the viral infection of TZM-BL cells compared to the control (HIV-1BaL [3]): 80%
inhibition of HIV-1 viral release among infected individuals (HIV-1 viral release; paired DMSO and BB-94 treatment, viremic and aviremic individuals): 30%-90%

sialyl-Lewis X
gp120-CD62L binding in the presence of inhibitor [1]: competed with gp120 for receptor binding
gp120-CD62L binding in the presence of inhibitor ([1]; listed as Sialyl-Lewis): inhibited gp120 binding

O=P(O)(O)C(Cl)(Cl)P(=O)(O)O [DMDP, dichloromethylenediphosphonic acid]
HIV-1BaL infection (HIV-1BaL [2]; 100 μM concentration, intracellular p24): showed no effect
CD62L shedding (CD62L shedding): showed no effect
activation-induced viral release, virion-associated HIV-1 RNA in supernatant (HIV-1 viral release; anti-CD3 stimulated CD4+ T cells from viremic and aviremic individuals, 48 hours): neither DMSO nor DMDP affected the viral release

gp120 of strain Z185 (Clade C) (ligand)
Kd [4]: 58 nM

Heparin
gp120-CD62L binding in the presence of inhibitor [1]: competed with gp120 for receptor binding
gp120-CD62L binding in the presence of inhibitor ([1]; listed as heparin): inhibited gp120 binding

recombinant gp120 from strain 20SF of Clade C (ligand)
Kd [4]: 53 nM

O=C(O)CN(CCN(CC(=O)O)CC(=O)O)CC(=O)O [EDTA]
HIV-1BaL infection, intracellular viral capsid p24 (HIV-1BaL [2]; 5 mM EDTA): significantly reduced

gp120 of strain RV254 (Clade E) (ligand)
Kd [4]: 15 nM

fucoidan
gp120-CD62L binding in the presence of inhibitor [1]: inhibited gp120 binding; also recorded: competed with gp120 for receptor binding

OC[C@H]1O[C@@H](O[C@H]2[C@H](O)[C@@H](O)C(O)O[C@@H]2CO)[C@H](O)[C@@H](O)[C@H]1O (some centres unmarked) [lactose]
gp120-CD62L binding in the presence of inhibitor [1]: not

CC(=O)N[C@H]1C(O)O[C@H](CO)[C@@H](O)[C@@H]1O (stereo partly drawn) [N-acetylglucosamine, N-acetyl-D-glucosamine]
gp120-CD62L binding in the presence of inhibitor [1]: not

gp120 of strain R66M (Clade A/C) (ligand)
Kd [4]: 18 nM

gp120 of strain 11530 (Clade A) (ligand)
Kd [4]: 35 nM

soluble mucin (PSM-II) (ligand)
Kd [5]: 3800 nM

gp120 of strain CAP 88 (Clade C) (ligand)
Kd [4]: 71 nM

B1
Kd [5]: 50000 nM

B2
Kd [6]: 19 nM

B3
Kd [7]: 19 ± 2 nM
